From article PMC10383271

Assays:
COX-2 = biological target: T1, COX-2 (Homo sapiens, UniProt P35354); experiment: COX-2 inhibition, Cayman's COX Colorimetric Inhibitor Screening Assay Kit; settings: for Selectivity Index (SI): COX-2 IC50/COX-1 IC50
T1 sequence (P35354 18-604): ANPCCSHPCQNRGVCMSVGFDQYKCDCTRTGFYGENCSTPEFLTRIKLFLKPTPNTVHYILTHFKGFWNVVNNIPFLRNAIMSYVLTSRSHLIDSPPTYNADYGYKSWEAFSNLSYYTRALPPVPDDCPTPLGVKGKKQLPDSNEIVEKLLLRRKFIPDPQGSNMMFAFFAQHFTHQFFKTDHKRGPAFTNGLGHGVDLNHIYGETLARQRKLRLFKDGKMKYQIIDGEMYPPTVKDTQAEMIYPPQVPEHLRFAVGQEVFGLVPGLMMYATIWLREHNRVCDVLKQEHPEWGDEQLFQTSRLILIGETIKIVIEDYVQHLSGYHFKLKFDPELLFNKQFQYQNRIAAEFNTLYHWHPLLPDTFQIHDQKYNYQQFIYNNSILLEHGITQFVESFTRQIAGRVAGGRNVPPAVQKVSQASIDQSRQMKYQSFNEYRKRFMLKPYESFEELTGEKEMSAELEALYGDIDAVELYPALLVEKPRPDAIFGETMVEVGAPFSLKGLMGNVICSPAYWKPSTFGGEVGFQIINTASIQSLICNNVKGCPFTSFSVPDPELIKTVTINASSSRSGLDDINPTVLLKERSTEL

[1] = biological target: human serum albumin (HSA) (Homo sapiens, UniProt P02768); experiment: Binding site study with HSA, replacement of markers DanG and DanF (fluorescence); set-up: purchased Sigma-Aldrich Chemie GmbH; settings: for percentage of the replacement of DanG: drug site 1 marker; for percentage of the replacement of DanF: drug site 2 marker
human serum albumin (HSA), sequence (P02768 25-609): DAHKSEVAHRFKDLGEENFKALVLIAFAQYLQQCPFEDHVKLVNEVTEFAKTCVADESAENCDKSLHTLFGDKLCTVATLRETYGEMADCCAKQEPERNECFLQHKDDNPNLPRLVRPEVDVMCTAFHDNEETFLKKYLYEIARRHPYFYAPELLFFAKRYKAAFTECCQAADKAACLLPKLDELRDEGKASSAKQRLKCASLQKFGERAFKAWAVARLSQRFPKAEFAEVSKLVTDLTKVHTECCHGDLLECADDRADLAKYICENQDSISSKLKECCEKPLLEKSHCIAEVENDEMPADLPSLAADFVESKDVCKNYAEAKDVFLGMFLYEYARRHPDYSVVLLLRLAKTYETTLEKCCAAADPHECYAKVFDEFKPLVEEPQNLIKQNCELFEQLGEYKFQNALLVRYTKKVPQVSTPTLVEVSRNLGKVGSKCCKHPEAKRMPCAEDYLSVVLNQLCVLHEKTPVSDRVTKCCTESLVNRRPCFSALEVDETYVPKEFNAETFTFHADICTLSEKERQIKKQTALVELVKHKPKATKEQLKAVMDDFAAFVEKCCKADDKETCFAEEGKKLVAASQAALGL
Excerpt: HSA, the most important transport protein in our body, has two main binding sites with high affinity to drug binding: drug site 1 in subdomain IIA and drug site 2 in subdomain IIIA [71, 72, 73]. To determine which site the test compounds bind to, the analysis with markers having an affinity for one of the binding sites can be used. Dansylated amino acids turn out to be good for this type of research. In our study, we used dansyl-L-glycine (DanG) and dansyl-L-phenylalanine (DanF) as drug site 1 and drug site 2 markers, respectively. DanG and DanF bound with HSA show the phenomenon of fluorescence at the excitation wave equal to 350 nm. Under these conditions, the fluorescence spectrum is recorded with a band maximum at approximately 510 nm for DanG and 505 nm for DanF, respectively. We conducted a study in which we introduced successive portions of the analyzed compounds to a solution containing equimolar amounts of HSA and each marker. We increased the molar ratio of the reactants from 1:1:0 to 1:1:10. The intensity of fluorescence decreases during the addition of successive portions of the analyzed compounds.
Based on the obtained results, it is possible to calculate the percentage of replacement of DanG or DanF in the complex with albumin by the tested compounds and thus compare the effectiveness of this reaction for all analyzed molecules. (6) percentage of replacement=F0−F/F0·100%
(§1) Binding site studies were conducted using fluorescence measurements. Spectra were recorded on Cary Eclipse 500 spectrophotometer (Agilent, Santa Clara, CA, USA) at room temperature with a 10 mm path length. HSA and AAG solutions were prepared in phosphate buffer, giving concentrations equal to 1 × 10^−6 M. The concentrations of dansylated-L-glycine (DanG), dansylated-L-phenylalanine (DanF), and quinaldine red (QR) were 1 × 10^−3 M. The densylated amino acids and QR solutions were prepared in ethanol. For the HSA-dansylated amino acids studies, the excitation wavelength was equal to 350 nm, while for the AAG-QR system, it was 500 nm, respectively. Then, 3 mL of protein was mixed with 3 µL of marker solution, giving a molar ratio of 1 to 1. Next, successive portions of the analyzed compounds were added to the mixtures prepared in this way, obtaining the appropriate protein-to-compound molar ratios, amounting to 1:0, 1:0.5, 1:1, 1:2, 1:3, 1:4, 1:5, and 1:10 for the HSA-densylated amino acids systems, and 1:0, 1:0.5, 1:1, 1:2, 1:3, 1:4, 1:6, 1:8, and 1:10 for the AAG-QR systems.

COX-1 = biological target: T2, COX-1 (Ovis aries, UniProt P05979); experiment: COX-1 inhibition, Cayman's COX Colorimetric Inhibitor Screening Assay Kit
T2 sequence (P05979 25-600): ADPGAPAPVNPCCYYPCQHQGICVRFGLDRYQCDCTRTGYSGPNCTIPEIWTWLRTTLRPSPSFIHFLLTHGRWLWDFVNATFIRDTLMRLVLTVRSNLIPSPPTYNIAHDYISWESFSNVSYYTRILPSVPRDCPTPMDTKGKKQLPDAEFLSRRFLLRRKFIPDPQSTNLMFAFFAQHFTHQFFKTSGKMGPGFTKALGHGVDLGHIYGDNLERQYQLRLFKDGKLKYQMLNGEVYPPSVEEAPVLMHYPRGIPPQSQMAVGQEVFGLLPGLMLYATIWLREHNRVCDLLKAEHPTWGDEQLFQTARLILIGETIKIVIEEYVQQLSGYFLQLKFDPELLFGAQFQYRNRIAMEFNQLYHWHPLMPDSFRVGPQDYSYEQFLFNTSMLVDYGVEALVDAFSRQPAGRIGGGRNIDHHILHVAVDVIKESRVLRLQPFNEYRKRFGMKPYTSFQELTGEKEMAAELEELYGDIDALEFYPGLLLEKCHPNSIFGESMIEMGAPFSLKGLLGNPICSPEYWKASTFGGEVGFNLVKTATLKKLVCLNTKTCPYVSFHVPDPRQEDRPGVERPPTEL

[2] = system: alpha-1-acid glycoprotein (AAG); experiment: Binding site study with AAG, replacement of marker quinaldine red (fluorescence); set-up: species or system human
Excerpt: Orosomucoid has seven binding sites in its molecule, but there is only one site where the drugs bind. A very good fluorescent marker for binding site study in the case of AAG is quinalidine red (QR).
We used a 500 nm excitation wavelength. In these conditions, the maximum emission spectra were located near 600 nm. We increased the molar ratio of the reactants from 1:1:0 to 1:1:10. The intensity of fluorescence decreases during the addition of successive portions of the analyzed compounds.
as §1

[3] = HSA:marker:compound molar ratio 1:1:0.5
[4] = HSA:marker:compound molar ratio 1:1:1
[5] = HSA:marker:compound molar ratio 1:1:2
[6] = HSA:marker:compound molar ratio 1:1:3
[7] = HSA:marker:compound molar ratio 1:1:4
[8] = HSA:marker:compound molar ratio 1:1:5
[9] = HSA:marker:compound molar ratio 1:1:10
[10] = AAG:marker:compound molar ratio 1:1:0.5
[11] = AAG:marker:compound molar ratio 1:1:1
[12] = AAG:marker:compound molar ratio 1:1:2
[13] = AAG:marker:compound molar ratio 1:1:3
[14] = AAG:marker:compound molar ratio 1:1:4
[15] = AAG:marker:compound molar ratio 1:1:6
[16] = AAG:marker:compound molar ratio 1:1:8
[17] = AAG:marker:compound molar ratio 1:1:10

| SMILES | IC50 (COX-2) [µM] | Selectivity Index (SI) (COX-2) | percentage of the replacement of DanG [1, 3] [%] | percentage of the replacement of DanG [1, 4] [%] | percentage of the replacement of DanG [1, 5] [%] | percentage of the replacement of DanG [1, 6] [%] | percentage of the replacement of DanG [1, 7] [%] | percentage of the replacement of DanG [1, 8] [%] | percentage of the replacement of DanG [1, 9] [%] | percentage of the replacement of DanF [1, 3] [%] | percentage of the replacement of DanF [1, 4] [%] | percentage of the replacement of DanF [1, 5] [%] | percentage of the replacement of DanF [1, 6] [%] | percentage of the replacement of DanF [1, 7] [%] | percentage of the replacement of DanF [1, 8] [%] | percentage of the replacement of DanF [1, 9] [%] | IC50 (COX-1) [µM] | percentage of the replacement of QR [2, 10] [%] | percentage of the replacement of QR [2, 11] [%] | percentage of the replacement of QR [2, 12] [%] | also measured |
| --- | --- | --- | --- | --- | --- | --- | --- | --- | --- | --- | --- | --- | --- | --- | --- | --- | --- | --- | --- | --- | --- |
| CCCCn1c(C)c2c(OCC(=O)N/N=C/c3ccccc3)nn(C)c(=O)c2c1C [Compound 5a, N-[(Z/E)-benzylideneamino]-2-(6-butyl-3,5,7-trimethyl-4-oxo-pyrrolo[3,4-d]pyridazin-1-yl)oxy-acetamide] | 17.2 ± 1.4 | 0.21 | 0.7 | 0.7 | 3.7 | 5.2 | 6.7 | 8.5 | 15.7 | 2.3 | 2.7 | 5.9 | 9.0 | 11.7 | 14.9 | 28.8 | 81.9 ± 2.1 | 23.7 | 35.5 | 48.1 | percentage of the replacement of QR [2, 13]: 55.0%; percentage of the replacement of QR [2, 14]: 58.8%; percentage of the replacement of QR [2, 15]: 65.6%; percentage of the replacement of QR [2, 16]: 69.5%; percentage of the replacement of QR [2, 17]: 72.5% |
| Cc1c2c(OCC(=O)N/N=C/c3ccccc3)nn(C)c(=O)c2c(C)n1-c1ccccc1 [Compound 5b, N-[(Z/E)-benzylideneamino]-2-(3,5,7-trimethyl-4-oxo-6-phenyl-pyrrolo[3,4-d]pyridazin-1-yl)oxy-acetamide] | 22.7 ± 1.2 | 0.25 | 0 | 0.7 | 5.6 | 7.7 | 9.8 | 11.2 | 14.0 | 5.2 | 9.1 | 15.7 | 20.4 | 23.5 | 27.4 | 32.2 | 90.1 ± 1.8 | 17.2 | 29.1 | 40.3 | percentage of the replacement of QR [2, 13]: 47.0%; percentage of the replacement of QR [2, 14]: 52.2%; percentage of the replacement of QR [2, 15]: 55.2%; percentage of the replacement of QR [2, 16]: 56.7%; percentage of the replacement of QR [2, 17]: 58.2% |
| Cc1c2c(OCC(=O)N/N=C/c3ccccc3)nn(C)c(=O)c2c(C)n1-c1cccc(Cl)c1 [Compound 5c, N-[(Z/E)-benzylideneamino]-2-[6-(3-chlorophenyl)-3,5,7-trimethyl-4-oxo-pyrrolo[3,4-d]pyridazin-1-yl]oxyacetamide] | 23.6 ± 2.5 | 0.23 | 2.9 | 2.9 | 4.3 | 5.0 | 5.7 | 6.4 | 11.4 | 6.2 | 9.5 | 13.8 | 18.1 | 19.0 | 21.0 | 23.3 | 98.9 ± 1.6 | 31.7 | 39.7 | 52.4 | percentage of the replacement of QR [2, 13]: 54.0%; percentage of the replacement of QR [2, 14]: 54.8%; percentage of the replacement of QR [2, 15]: 55.6%; percentage of the replacement of QR [2, 16]: 55.6%; percentage of the replacement of QR [2, 17]: 55.6% |
